Entries after “also recorded” stand apart in the source; their conditions may differ.
Experiments:
[1] = system: murine primary bone marrow cells (CFU-GEMM); assay: Multipotential colonies (CFU-GEMM) from murine bone marrow cells, colony and differential counts; type: cell-based, mouse; conditions: for megakaryocyte formation and development (in words): 8 days treatment; for Early (E.MK) megakaryocyte formation (in words): 25 μg or more, 14 days; for Early (E.MK) megakaryocyte formation (in words) / increase in total megakaryocyte proliferation over controls: FIG. 21; for increase in total megakaryocyte proliferation over controls: differential count
Protocol: Proliferation of megakaryocytes in multipotential colonies (CFU-GEMM) from murine Bone Marrow cells: Primary bone marrow cells (1×10^5 per ml) from 8-12 week-old C3H/HeJ mice were grown in serum-free methyl cellulose-IMDM medium for 8-9 days at 5% CO2, 95% air, at 37° C. The medium, appropriate for the growth of multipotential colonies (CFU-GEMM), contained 1% BSA (Sigma), 10^−4 M thioglycerol (Sigma), 2.8×10^−4 M human transferrin (TF, Biological industries, Israel), 10% WEHI-CM as a source of IL-3 and 2 units per ml erythropoietin (rhEPO, R & D Systems, Minneapolis). […] They were picked with a micropipette, cytocentrifuged and stained with May-Grunwald-Giemsa for differential counts. At least 700 cells were counted for each preparation. […]

[2] = system: platelets of myeloablated, bone marrow transplanted mice; assay: Platelet reconstitution in irradiated bone marrow transplant recipient mice; type: in vivo, mouse; conditions: for increase in platelet counts over untreated controls / platelet count: 800 cGy, 4 daily i.p. injections; for increase in platelet counts over untreated controls: 100 μg per mouse; for enhancement of platelet counts compared to control mice: F1 mice, 750 cGy, 1 mg i.v., 10 days post-transplantation
Protocol: Leukocyte and platelet reconstitution in bone marrow transplant recipient mice: BALB/c mice were sub-lethally irradiated at a source to skin distance of 70 cm, dosage of 50 cGy per minute, for a total of 600 cGy. The irradiated mice were reconstituted with syngeneic bone marrow as described above and injected intravenously 24 hours later with 1 mg per animal peptides derived from natural casein, synthetic peptides derived from casein (13-26 amino acids, see Table 3 above), or human serum albumin (controls), following a double-blinded protocol. Leukocyte reconstitution was determined according to cell count in peripheral blood collected at indicated intervals from 6 to 12 days post treatment. Platelet reconstitution was determined by cell count in blood collected from the retro orbital plexus, into EDTA-containing vials, at indicated intervals from day 6 to day 15 post treatment.
In an additional series of experiments, CBA mice were lethally irradiated (900 cGy), reconstituted with BM cells and treated with peptides derived from natural casein or human serum albumin as described above. Platelet reconstitution was assayed as mentioned above.
[…] Platelet reconstitution was assayed at 10 and 12 days post-transplantation.

[3] = system: human Peripheral Blood Stem Cells / K562 target cells; assay: NK activity of cultured human PBSC (35S release from K562 target cells); type: cell-based
Protocol: From human Peripheral Blood Stem Cells (PBSC): PBSC of G-CSF treated subjects were separated on a FICOLL gradient, washed twice with RPMI-1640 medium containing 10% FCS and glutamine, and seeded into 1.5 ml wells with or without peptides derived from natural casein or synthetic peptides derived from casein, as indicated, (0-500 μg per ml). Following two days incubation the cells were assayed for Natural Killer activity by measuring radioactivity released from ^35S-labeled K562 target cells (NEG-709A, 185.00 MBq, 2.00 mCi EASYTAGth Methionine, L-[^35S] 43.48 TBq per mmol, 1175.0 Ci per mmol, 0.488 ml, Boston USA). Two concentrations of effector cells (2.5×10^5 and 5×10^5 cells per well) were incubated with 5×10^3 target cells per well (effector:target cell ratios of 50:1 and 100:1, respectively) in U-bottomed 96 well tissue culture plates. The cells were incubated for 5 hours at 37° C. in 5% CO2, 95% air and precipitated by 5 minutes centrifugation at 1000 rpm. ^35S release was measured in 50 μl samples of the supernatant liquid.

[4] = system: HIV-1 infection of CEM cells; assay: Inhibition of in vitro HIV-1 infection of CEM lymphocytes (cell counts, P24 antigen assay); type: cell-based
Protocol: Peptides: Peptides (either peptides derived from natural casein or synthetic peptides derived from casein (2-26 amino acids in length, see table 3) supplied as lyophilized powder were resuspended in RPMI complete medium and added to cell cultures at a final concentrations of 50 to 1000 μg per ml.
Cells: Several types of freshly isolated human cells (primary cells) and cell lines are known to be susceptible to in vitro HIV-1 infection, although essentially any cell displaying even low surface levels of the CD4molecule can be considered a potential target for HIV-1 infection. Two commonly used human cell lines which are highly sensitive for HIV-1 infection were chosen, CEM and Sup-T1.
CEM is a human T4-lymphoblastoid cell line initially derived by G. E. Foley et al. [(1965), Cancer 18:522] from peripheral blood buffy coat of a person with acute lymphoblastic leukemia. These cells were continuously maintained in suspension in medium, and have been used widely for analysis of infectivity, antiviral agents and neutralizing antibodies.
Virus: The HIV virus strain employed was HIV-1IIIB, originally designated HTLV-IIIB. Concentrated culture fluids of peripheral blood from several patients with AIDS or related diseases were used to establish a permanent productive infection in H-9 cells. This subtype B virus has high capacity to replicate in human T-cell lines. Viral titer was 5.38 ng per ml in stock solution.
HIV-1 P^24 antigen capture assay: An HIV-1 P^24 Antigen capture assay kit employed was designed to quantitate the HIV-1 P^24 core antigen, which is proportionally related to the degree of viral production in cells. This kit was purchased from the AIDS Vaccine program of the SAIC-NCI-Frederick Cancer Research Institute, P.O. Box B, Frederick, Md. 21702, USA and included 96 well plates coated with monoclonal antibody to HIV-1 P^24, primary antibody-rabbit anti-HIV P^24 serum, secondary antibody-Goat anti-rabbit-IgG (H+ L) peroxidase conjugated antibody, TMB peroxidase substrate system and lysed HIV-1 P^24 standard. The HIV-1 P^24 antigen capture assay was analyzed by Organon-Technica ELISA reader at 450 nm with a reference at 650 nm.
HIV-1 P^24 antigen capture ELISA: HIV infection was measured with an indirect enzyme immunoassay which detects HIV-1 P^24 core antigens in tissue culture media. Tissue culture supernatant was reacted with primary rabbit anti-HIV-1 P^24 antigen and visualized by peroxidase conjugated goat anti rabbit IgG. The reaction was terminated by adding 4N H2SO4, wherein the intensity of the color developed is proportional to the amount of HIV-1 antigen present in the tissue culture supernatant.
HIV infection of human cultured CD4 cells: For longer incubations, the cells (CEM, Sup-T1) were preincubated with several increasing concentrations of peptides derived from natural casein (50-1000 μg per ml) or synthetic peptides derived from casein (10-500 μg per ml) for 24 (for synthetic and natural peptides) and 48 (only for natural peptides) hours and HIV-1IIIB (45 pg per ml final concentration) was added to each well thereafter. For the shorter incubations (3 hours), HIV-1IIIB was preincubated with the peptides for 3 hours and then added to cells (5000 cells/well) in tissue culture plates. Controls were IF (Infected, cells cultured with HIV-1 and without peptides), UIF (Uninfected, cells cultured without HIV-1 and without peptides) and UIF+Ch (Uninfected+peptides derived from natural casein, cells cultured in the presence of peptides derived from natural casein {50-1000 μg per ml}) to test the effect of peptides derived from natural casein and synthetic peptides derived from casein on cell viability and growth. Cells were counted for viability and proliferation rate on day 7, 10 and day 14 post infection (the day of P^24 antigen culture supernatant harvest). Cells and tissue culture supernatants (media) were harvested and lysed immediately in 1/10 volume of 10% Triton X-100. […]

[5] = system: peripheral white blood cells of myeloablated, bone marrow transplanted mice; assay: Leukocyte reconstitution in irradiated bone marrow transplant recipient mice; type: in vivo, mouse; conditions: for peripheral white blood cell count: BALB/c, 600 cGy, 1 mg per mouse i.p.; for early leukocyte reconstitution (in words): F1 mice, 750 cGy, 1 mg i.v., 5 and 7 days post-transplantation
[6] = system: glucose metabolism in NOD mice; assay: Intraperitoneal Glucose Tolerance Test (IPGTT) in NOD mice; type: in vivo, mouse; conditions: healthy NOD mice after 25 weeks
Protocol: Intraperitoneal Glucose Tolerance Test (IPGTT): The glucose tolerance test is the definitive method for investigating glucose metabolism and diabetic tendencies in mammals. Twenty five (25) weeks after receiving Synthetic peptides derived from casein, response to a glucose load was assessed with an intraperitoneal glucose tolerance test. Glucose injection consisted of 1 g/kg body weight. Glycemic values were determined from blood drawn prior to test (0 minutes) and 60 minutes after loading.

[7] = system: human bone marrow progenitor cells (CFU-GM); assay: CFU-GM colonies from human bone marrow progenitor cells with IL-3 and G-CSF; type: cell-based; conditions: 300 μg/ml, G-CSF and IL-3, 14 days
Protocol: Cells were scored in the macroscopic colonies grown from human bone marrow cells prepared similarly to the CFU-GEMM colonies previously described. Cells were incubated with hematopoietic factors cytokine (IL-3) and colony stimulating factor (G-CSF), and 25 μg or more of synthetic peptides derived from casein: peptide J, representing amino acids 1-22 of α-S1 casein (SEQ ID NO. 21), or β-casein, representing amino acids 193-208 of β-casein (SEQ ID No. 28). Exposure of the human bone marrow progenitor cells to peptides derived from casein was for 14 days. Stimulation of colony formation (CFU) is expressed as the number of myeloid per colonies in 10^5 plated MNCs. Note the synergistic increase (>50% with 100 μg/ml of peptide J, and >30% with 300 μg/ml of synthetic β-casein) in myelocyte formation in cultures exposed to G-CSF, IL-3 and the synthetic peptides derived from β-casein and an N terminal portion of α-S1 casein.
A similar effect of synthetic peptides derived from α-, β- or κ-casein was observed on the proliferation of granulocytes and macrophages from human bone marrow progenitor cells. […] (FIG. 20). Thus, synthetic peptides derived from αS1-, αS2-, β- or κ-casein or combinations thereof are effective in augmenting the effect of granulopoietic factors such as G-CSF on bone marrow hematopoietic progenitor cell differentiation and expansion.

In the case of RPKHPIKHQGLP [3a], the “megakaryocyte formation and development (in words)” value [1] is reported as “significant increase”, the “increase in platelet counts over untreated controls” value (“increase in platelet counts” below) ([2]; 10 days post transplantation) is reported as “up to 35.5%” and the “increase in platelet counts” value ([2]; 12 days post transplantation) is reported as “up to 13.5%”. The platelet count ([2]; 10 days post transplantation) was 229000 mL⁻¹ and the platelet count ([2]; 12 days post transplantation) was 622000 mL⁻¹.

RPK [1P] was tested, and the “patients responding (of the 5 tested)” value ([3]; 25 μg/ml peptide) was 3, the “patients responding (of the 5 tested)” value ([3]; 100 μg/ml peptide) was 1 and the “patients responding (of the 5 tested)” value ([3]; 250 μg/ml peptide) was 1. For the same substance, the “target cell lysis, fold that of untreated controls” value ([3]; PBS cells from donors with hematopoietic disease) was ≥ 2 fold, the HIV-P24 antigen ([4]; 100 μg/ml, 7 days post infection, untreated control 0.52) was 0.17 ng P^24 Antigen/ml and the HIV-P24 antigen ([4]; 500 μg/ml, 7 days post infection, untreated control 0.52) was 0.14 ng P^24 Antigen/ml.

With RPKHPIKHQGL [2a] the “megakaryocyte formation and development (in words)” value [1] was “significant increase”.

RPKHPIKHQGLPQEVLNENLLRFF was tested, and the “megakaryocyte formation and development (in words)” value [1] was “significant increase”.

In the case of RPKHPIKHQGLPQEVLNENLLR [J], the “peripheral white blood cell count” value ([5]; day 10) is reported as 2.74 ×10^6 cells per ml, the “peripheral white blood cell count” value ([5]; day 12) is reported as 5.20 ×10^6 cells per ml and the “early leukocyte reconstitution (in words)” value ([5]; listed as SEQ ID NO: 21) is reported as “dramatic enhancement; also recorded: strong stimulation”. The “Early (E.MK) megakaryocyte formation (in words)” value [1] was “dramatic effect”.

With RPKHPIKHQ [X] the “glucose tolerance (IPGT) test result in words” value [6] was “no evidence of abnormal glucose metabolism”.

RPKHPIKHQGLPQEVLN was tested, and the “megakaryocyte formation and development (in words)” value [1] was “significant increase”.

In the case of RPKHPIKHQGLPQEVLNENL, the “megakaryocyte formation and development (in words)” value [1] is reported as “significant increase”.

In the case of MAIPPKKNQDKTEIPTINTIAS [κ 106-127], the “Early (E.MK) megakaryocyte formation (in words)” value [1] is reported as “dramatic effect”, the “increase in total megakaryocyte proliferation over controls” value [1] is reported as 21% and the “enhancement of platelet counts compared to control mice” value ([2]; listed as SEQ ID NO: 30) is reported as 26%.

For RPKHPI [4P], the “HIV-P24 antigen (in words)” value ([4]; virus pre-incubated 3 hours, 7 days post infection) was “dose dependent reduction”, the cell counts ([4]; virus pre-treated 3 hours, 250 μg per ml, infected control 1.06×10^6) was 1.59×10^6 and the “megakaryocyte formation and development (in words)” value [1] was “significant increase”. For the same substance, the “increase in platelet counts” value ([2]; 12 days post transplantation) was 29% and the platelet count ([2]; 12 days post transplantation) was 872000 mL⁻¹.

For YQEPVLGPVRGPFPII [β 193-208], the “enhancement of granulopoietic stimulating effect of G-CSF (myelocyte formation)” value ([7]; listed as SEQ ID NO: 28) was 30%, the “enhancement of granulopoietic stimulating effect of G-CSF (myelocyte formation)” value ([7]; listed as synthetic β-casein) was > 30% and the “early leukocyte reconstitution (in words)” value ([5]; listed as SEQ ID NO: 28) was “dramatic enhancement; also recorded: strong stimulation”. The “Early (E.MK) megakaryocyte formation (in words)” value [1] was “dramatic effect”, the “increase in total megakaryocyte proliferation over controls” value [1] was 32% and the “enhancement of platelet counts compared to control mice” value ([2]; listed as SEQ ID NO: 28) was 32%.

In the case of RPKHPIKHQGLPQEVLNE [F], the “megakaryocyte formation and development (in words)” value [1] is reported as “significant increase”.

In the case of RPKHP [3P], the HIV-P24 antigen ([4]; virus pre-treated 3 hours, 10 μg per ml, 7 days post infection, control 0.52) is reported as 0.26 ng P^24 Ag per ml, the HIV-P24 antigen ([4]; virus pre-treated 3 hours, 25 μg per ml, 7 days post infection, control 0.52) is reported as 0.18 ng P^24 Ag per ml and the “megakaryocyte formation and development (in words)” value [1] is reported as “significant increase”.

With RPKHPIKHQGLPQEVLNENLL the “megakaryocyte formation and development (in words)” value [1] was “significant increase”.
